Results as given in patent US20100255580A1, “Differentiation of Human Embryonic Stem Cells” (LIFESCCAN, INC., priority 2007, published 2010).
“And” between values parts separate entries of the source, which are not always exact repeats. Identical values can stand only once.

Tests used:
Type in all cases: cell-based
[1] = system: human embryonic stem cell line H9; experiment: FACS of CXCR4 and CD9, H9 maintained on […] and differentiated on MEFs (Example 25); conditions: for CXCR4 positive cells (FACS): without (label Activin A) or with Wnt3a
Experimental: Adhered cells were removed from culture plates by five-minute incubation with TrypLE™ Express solution (Invitrogen, CA). Released cells were resuspended in human embryonic stem cell culture medium and recovered by centrifugation, followed by washing and resuspending the cells in a staining buffer consisting of 2% BSA, 0.05% sodium azide in PBS (Sigma, MO). As appropriate, the cells were Fc-receptor blocked for 15 minutes using a 0.1% γ-globulin (Sigma) solution. […] Controls included appropriate isotype matched antibodies, unstained cells, and cells stained only with secondary conjugated antibody. All incubations with antibodies were performed for 30 mins at 4° C. after which the cells were washed with the staining buffer. Samples that were stained with unconjugated primary antibodies were incubated for an additional 30 mins at 4° C. with secondary conjugated PE or -APC labeled antibodies. See Table I for a list of secondary antibodies used. Washed cells were pelleted and resuspended in the staining buffer, and the cell surface molecules were identified using a FACS Array (BD Biosciences) instrument, collecting at least 10,000 events.
(§1) Cells from the human embryonic stem cell line H9 cultured on […]™ for at least five passages were seeded onto MEF feeders in ES media.
(§2) At day 3 and 5, the cultures were analyzed by real time PCR for SOX-17, SOX-7, Alpha-fetal protein (AFP), CXCR4, Brychyury (Bry), gooscecoid (GSC), HNF-3 beta, GATA4, hTERT and Oct4. AFP and SOX-7 are regarded as visceral endoderm markers while GATA4, HNF-3beta and SOX-17 represent definite endoderm markers and GSC, Bry, and CXCR4 represent markers of primitive streak. hTERT and Oct-4 are markers for self renewal and pluripotency respectively. FACS analysis was also performed at day 3 and 5.

[2] = system: human embryonic stem cell line H9; experiment: Real-time PCR, H9 maintained on […] and differentiated on MEFs (Example 25); conditions: Wnt3a 20 ng/ml added to 100 ng/ml activin A; increases over time
Experimental: as §1, §2

[3] = system: human embryonic stem cell line H9; experiment: Cytokine array analysis of cell lysates and conditioned media; parameters: key to BMP-4 expression / BMP-6 expression / EGF expression / FGF-6 expression / Fractalkine expression / GCP-2 expression / IL-3 expression / IL-4 expression / IL-6 expression / M-CSF expression / MIG expression / Amphiregulin expression: cytokine array signal, normalized and background-subtracted
Experimental: The effect that Wnt-3a treatment has on cytokine expression was analyzed using a protein array. Cells of the human embryonic stem cell line H9 were cultured according to the methods described in Example 15. At passage 54, cells were differentiated in the presence of 100 ng/ml ActivinA+/−10 ng/ml Wnt3a for 2 days in 0.5% FBS DMEM/F12. Cells were subsequently cultured for an additional three days in 100 ng/mlActivin A and 2% FBS DMEM/F12. At the end of the 5th day, CXCR4 expression was determined by FACS for each treatment group.
Cell lysates were prepared from cells of each treatment group, with a mammalian cell lysis kit (Sigma-Aldrich, MO). Conditioned media from each treatment group was collected and concentrated. Cytokine array analysis was completed using Cytokine Array panels provided by RayBiotech, GA (http://www.raybiotech.com/). Table VII lists cytokine, growth factor, and receptor expression following normalization of the data and background subtraction. For each panel, positive and negative controls are also included. Th data shown are two independent samples per cell treatment group (1,2).

Wnt-3a
role in differentiation of human embryonic stem cells, cultured on MEFs, to definitive endoderm [1]: does not appear to play a significant role
CXCR4 positive cells (FACS) ([1]; day 3, high concentration of Activin A): 23-33%
CXCR4 positive cells (FACS) ([1]; day 5, high concentration of activin A): 43-51%
AFP expression [2]: increase in the expression of AFP
1L-1beta expression ([3]; Cell conditioned media): 316.59 and 278.30
1L-1ra expression ([3]; Cell conditioned media): 354.23 and 581.75
Acrp30 expression ([3]; Cell conditioned media): 2,795.71 and 2,302.99
AgRP expression ([3]; Cell conditioned media): 651.26 and 482.21
Amphiregulin expression ([3]; Cell conditioned media): 619.07 and 782.60
Angiogenin expression ([3]; Cell conditioned media): 57,442.48 and 54,969.04
Angiopoietin-2 expression ([3]; Cell conditioned media): 65,959.24 and 71,664.21
AxI expression ([3]; Cell conditioned media): 610.40 and 748.34
BDNF expression ([3]; Cell conditioned media): 770.08 and 715.86
BLC expression ([3]; Cell conditioned media): 337.12 and 249.80
BMP-6 expression ([3]; Cell conditioned media): 985.70 and 670.60
CK beta 8-1 expression ([3]; Cell conditioned media): 42.78 and 75.44
CNTF expression ([3]; Cell conditioned media): 787.19 and 541.51
EGF expression ([3]; Cell conditioned media): 23,331.57 and 22,768.53
Eotaxin-2 expression ([3]; Cell conditioned media): 2,156.21 and 1,445.14
Eotaxin-3 expression ([3]; Cell conditioned media): 2,140.81 and 1,480.35
FGF-6 expression ([3]; Cell conditioned media): 3,283.94 and 2,519.78
Flt-3 Ligand expression ([3]; Cell conditioned media): 511.67 and 792.98
Fractalkine expression ([3]; Cell conditioned media): 359.37 and 367.15
GCP-2 expression ([3]; Cell conditioned media): 451.78 and 362.12
GDNF expression ([3]; Cell conditioned media): 443.22 and 509.66
GM-CSF expression ([3]; Cell conditioned media): 1,808.82 and 1,446.82
I-309 expression ([3]; Cell conditioned media): 318.30 and 288.36
IFN-gamma expression ([3]; Cell conditioned media): 1,238.97 and 1,435.08
IGF-I expression ([3]; Cell conditioned media): 254.98 and 187.77
IGFBP-1 expression ([3]; Cell conditioned media): 227.60 and 155.91
IGFBP-2 expression ([3]; Cell conditioned media): 42,215.53 and 43,934.33
IGFBP-4 expression ([3]; Cell conditioned media): 18,988.34 and 13,380.14
IL-1alpha expression ([3]; Cell conditioned media): 3,999.26 and 3,545.79
IL-2 expression ([3]; Cell conditioned media): 758.10 and 881.84
IL-3 expression ([3]; Cell conditioned media): 11,345.78 and 12,174.73
IL-4 expression ([3]; Cell conditioned media): 804.30 and 673.95
IL-5 expression ([3]; Cell conditioned media): 2,120.27 and 1,713.38
IL-6 expression ([3]; Cell conditioned media): 9,774.82 and 9,991.93
IL-10 expression ([3]; Cell conditioned media): 1,625.71 and 1,129.96
IL-13 expression ([3]; Cell conditioned media): 2,522.42 and 1,807.27
IL-15 expression ([3]; Cell conditioned media): 2,495.04 and 1,981.62
IL-16 expression ([3]; Cell conditioned media): 436.38 and 405.71
LIGHT expression ([3]; Cell conditioned media): 1,346.78 and 1,108.17
Leptin expression ([3]; Cell conditioned media): 7,238.71 and 4,886.99
M-CSF expression ([3]; Cell conditioned media): 740.98 and 684.01
MCP-1 expression ([3]; Cell conditioned media): 2,015.89 and 1,567.53
MCP-2 expression ([3]; Cell conditioned media): 694.78 and 694.07
MCP-3 expression ([3]; Cell conditioned media): 701.62 and 583.42
MCP-4 expression ([3]; Cell conditioned media): 231.02 and 276.62
MIP-1-delta expression ([3]; Cell conditioned media): 474.02 and 291.71
MIP-3-alpha expression ([3]; Cell conditioned media): 208.78 and 184.41
NAP-2 expression ([3]; Cell conditioned media): 371.35 and 343.68
NT-3 expression ([3]; Cell conditioned media): 571.57 and 427.51
PARC expression ([3]; Cell conditioned media): 474.02 and 363.80
PDGF-BB expression ([3]; Cell conditioned media): 2,635.37 and 2,005.09
RANTES expression ([3]; Cell conditioned media): 682.80 and 855.01
SCF expression ([3]; Cell conditioned media): 1,394.69 and 2,155.98
SDF-1 expression ([3]; Cell conditioned media): 326.85 and 616.95
TGF-beta 1 expression ([3]; Cell conditioned media): 1,827.65 and 1,849.18
TGF-beta 3 expression ([3]; Cell conditioned media): 294.34 and 343.68
TNF-alpha expression ([3]; Cell conditioned media): 2,609.70 and 2,167.71
TNF-beta expression ([3]; Cell conditioned media): 1,701.01 and 1,637.94
bFGF expression ([3]; Cell conditioned media): 1,226.99 and 1,241.09
1L-1beta expression ([3]; Cell lysate): 352.05 and 312.08
1L-1ra expression ([3]; Cell lysate): 302.68 and 198.48
Acrp30 expression ([3]; Cell lysate): 601.61 and 690.66
AgRP expression ([3]; Cell lysate): 77.82 and 89.00
Angiogenin expression ([3]; Cell lysate): 619.40 and 750.85
AxI expression ([3]; Cell lysate): 88.59 and 139.03
BDNF expression ([3]; Cell lysate): 763.51 and 951.45
BLC expression ([3]; Cell lysate): 742.24 and 476.36
BMP-4 expression ([3]; Cell lysate): 348.44 and 304.48
BMP-6 expression ([3]; Cell lysate): 571.23 and 641.05
CK beta 8-1 expression ([3]; Cell lysate): 22.48 and 21.54
CNTF expression ([3]; Cell lysate): 1,382.51 and 1,060.82
EGF expression ([3]; Cell lysate): 742.24 and 984.39
Eotaxin expression ([3]; Cell lysate): 301.87 and 253.80
Eotaxin-3 expression ([3]; Cell lysate): 934.12 and 847.56
Flt-3 Ligand expression ([3]; Cell lysate): 857.45 and 795.19
Fractalkine expression ([3]; Cell lysate): 792.02 and 456.51
GCP-2 expression ([3]; Cell lysate): 593.71 and 538.86
GDNF expression ([3]; Cell lysate): 436.75 and 444.68
GM-CSF expression ([3]; Cell lysate): 1,343.17 and 1,161.75
I-309 expression ([3]; Cell lysate): 708.52 and 743.25
IFN-gamma expression ([3]; Cell lysate): 1,202.67 and 1,037.60
IGFBP-1 expression ([3]; Cell lysate): 59.41 and 85.73
IGFBP-2 expression ([3]; Cell lysate): 2,671.90 and 2,414.72
IGFBP-4 expression ([3]; Cell lysate): 4,459.85 and 4,173.19
IL-1alpha expression ([3]; Cell lysate): 1,612.93 and 1,421.89
IL-3 expression ([3]; Cell lysate): 2,119.94 and 1,497.48
IL-4 expression ([3]; Cell lysate): 625.42 and 638.94
IL-5 expression ([3]; Cell lysate): 1,245.23 and 1,167.24
IL-10 expression ([3]; Cell lysate): 1,222.75 and 1,096.30
IL-13 expression ([3]; Cell lysate): 1,486.89 and 1,407.96
IL-15 expression ([3]; Cell lysate): 1,677.16 and 1,601.79
IL-16 expression ([3]; Cell lysate): 651.11 and 668.50
Leptin expression ([3]; Cell lysate): 1,234.39 and 1,091.65
M-CSF expression ([3]; Cell lysate): 852.63 and 867.83
MCP-1 expression ([3]; Cell lysate): 1,022.03 and 1,076.03
MCP-3 expression ([3]; Cell lysate): 1,184.61 and 1,255.50
MCP-4 expression ([3]; Cell lysate): 1,380.51 and 1,606.86
MDC expression ([3]; Cell lysate): 269.36 and 280.41
MIG expression ([3]; Cell lysate): 1,113.16 and 1,137.26
MIP-1-delta expression ([3]; Cell lysate): 491.75 and 322.22
MIP-3-alpha expression ([3]; Cell lysate): 1,602.09 and 1,399.93
NT-3 expression ([3]; Cell lysate): 316.73 and 275.76
PARC expression ([3]; Cell lysate): 352.85 and 353.04
PDGF-BB expression ([3]; Cell lysate): 517.84 and 597.56
RANTES expression ([3]; Cell lysate): 724.98 and 637.25
SCF expression ([3]; Cell lysate): 1,152.50 and 1,021.13
TARC expression ([3]; Cell lysate): 372.93 and 343.33
TGF-beta 1 expression ([3]; Cell lysate): 1,426.67 and 1,240.30
TNF-alpha expression ([3]; Cell lysate): 2,851.74 and 1,285.91
TNF-beta expression ([3]; Cell lysate): 1,049.33 and 1,026.62
bFGF expression ([3]; Cell lysate): 11,722.95 and 21,398.52
IGFBP-1, TGFbeta-1 and TGFbeta-3 in cell lysates ([3]; Wnt3a treated vs Activin A only): upregulated
Angiogenin, IGFBP-1 and EGF in cell conditioned media ([3]; Wnt3 treated vs Activin A only): Noticeable upregulation
